Patent publication US20240262817A1, “QUINAZOLINE DERIVATIVES TARGETING R(CCUG) REPEATS IN MYOTONIC DYSTROPHY TYPE 2” (University of Florida Research Foundation, Incorporated, priority 2021, published 2024)

Experiments:
[1] = system: DM2 patient-derived fibroblasts; assay: Cell viability by CellTiter-Glo; type: cell-based; conditions: for toxicity as stated in legend of FIG. 3C: DM2 fibroblasts; for toxicity in DM2 patient-derived fibroblasts: at 5 μM
Description: (§1) Cell lines and cell culture: Compounds were tested in two cell lines: (i) DM2 patient-derived fibroblasts (generous gift from University of Florida, Center for NeuroGenetics) and (ii) fibroblasts from a healthy donor (wild-type; WT GM07492; Coriell Institute). Cells were maintained at 37° ° C. with 5% CO2. DM2 fibroblasts were cultured in DMEM/high glucose (HyClone) supplemented with 20% FBS (Sigma) and 1% Antibiotic-Antimycotic solution (Corning). Wild-type fibroblasts were cultured in MEM (Corning) supplemented with 10% FBS, 1% Glutagro (Corning), and 1% Antibiotic-Antimycotic solution.
Evaluation of cell viability: Compound toxicity in DM2 fibroblasts was evaluated using a CellTiter-Glo Kit (Promega) as described in the manufacturer's protocol. Briefly, after 48 h treatment in 96-wells plates, 100 μL of the CellTiter-Glo reagent was added to each well. The plate was then incubated at room temperature for 10 min, and luminescence was measured using BioTek FLX-800 luminescence plate reader (n=6 replicates; 1 independent experiment).

[2] = system: IR exon 11 alternative splicing in DM2 patient-derived fibroblasts; assay: Rescue of IR exon 11 splicing via RT-PCR in DM2 fibroblasts; type: cell-based
Description: as §1
Evaluation of pre-mRNA splicing via RT-PCR: Pre-mRNA splicing was analyzed as previously described.^10 Briefly, cells were grown in 6-well plates and treated with the desired compound in growth medium at ˜40% confluency. After 48 h, the cells were lysed, and total RNA was harvested using a Zymo Quick RNA Miniprep Kit. Approximately 1 μg of total RNA was reverse transcribed using a qScript cDNA synthesis kit (20 μL of total reaction volume, Quanta BioSciences); 2 μL of the RT reaction was used for PCR using GoTaq DNA polymerase (Promega). RT-PCR products were observed after 35 cycles of 95° C. for 30 s, 58° C. for 30s, 72 °C for 1 min, and a final extension at 72° C. for 5 min. Products were separated on a 2% agarose gel (110 V for 1 h in 13TBE buffer), visualized by staining with ethidium bromide, and imaged using a Typhoon 9410 variable mode imager. Gels were quantified using ImageJ. Percent rescue was calculated by dividing the difference between treated and untreated DM2 samples by the difference between untreated DM2 and WT samples (Equation 2).

[3] = system: r(GACAGCCUGCUGUC)2 duplex, RNA containing a single 2×2 CU/UC internal loop; assay: NMR spectroscopy (WaterLOGSY, 1D) of binding to RNA with one 2×2 CU/UC internal loop
Excerpt: The binding 1-7 an RNA containing a single 2×2 CU/UC was further studied by NMR spectroscopy. […] Aromatic protons of the unbound RNA were assigned via a 2D NOESY spectrum (Figure S7).
NMR samples preparation: A self-complementary RNA construct, r(5′-GACAGCCUGCUGUC-3′), SEQ ID NO:12, was purchased from GE Healthcare Dharmacon, Inc., deprotected according to the manufacturer's recommended protocol, and desalted with PD-10 columns (GE Healthcare, cat: 17-0851-01) also per the manufacturer's protocol. RNA samples were dissolved in NMR Buffer [10 mM KH2PO4/K2HPO4 and 0.05 mM EDTA (pH 6.0)] and folded by heating to 95° C. for 3 min and slowly cooling to room temperature.
NMR spectroscopy: NMR spectra were acquired at 25° C. on Bruker Avance III 600 and 700 MHZ spectrometers equipped with cryoprobes. 1D NMR spectra were acquired on samples containing 100 μM of RNA alone in 100% D20. Compounds 38, 40, 41, and 42 were each titrated into separate samples at 0.5, 1.0, 1.5, and 2.0 compound: RNA molar ratios. WaterLOGSY (water-ligand observed via gradient spectroscopy) spectra^29 were acquired on samples containing 300 μM of each compound alone or in the presence of 15 μM of RNA at a 20:1 compound:RNA ratio in H2O, to which D2O was added to 5% by volume. WaterLOGSY spectra were phased to give negative NOEs for non-binders. […]

r(CCUG)12-MBNL1 complex = assay: TR-FRET assay, disruption of pre-formed r(CCUG)12-MBNL1 complex; type: biochemical; conditions: in vitro, read-out: IC50 for disrupting an r(CCUG)12-MBNL1 complex
Excerpt: Of the 44 hits, 38 contained a similar substituted N2-phenylquinazoline-2,4-diamine core, while the other hits contained benzimidazoles and indazoles (Figure S2). Importantly, these 44 compounds are drug-like as they have similar physicochemical properties to the rest of the library and to known-drugs in Drug Bank (FIG. 2A). On average, the 44 hit compounds have a molecular weight of 327±35 g/mol, a cLogP of 3.2±0.9. TPSA of 76±15 Å, and 2.5±0.9 hydrogen bond donors. The in vitro potencies (IC50s) of the 44 compounds were then measured in the TR-FRET assay, affording seven compounds (1-7) with IC50s <50 μM (highlighted in red in FIGS. 2B & 2C).
In vitro IC50 measurements: IC50 measurements for disruption of r(CCUG)12-MBNL1 complex was completed using a previously reported TR-FRET assay with minor modifications.^23, 24 Briefly, 5′-biotinylated r(CCUG)12 (SEQ ID NO: 15) was folded in 1× Folding Buffer (20 mM HEPES, pH 7.5, 110 mM KCl, and 10 mM NaCl) at 60° C. for 5 min then cooled to room temperature. The buffer was adjusted to 1× Assay Buffer (20 mM HEPES, pH 7.5, 110 mM KCl, 10 mM NaCl, 2 mM MgCl2, 2 mM CaCl2), 5 mM DTT. 0.1% BSA, and 0.5% Tween-20).
Next, MBNL1-His6 was added, and the samples were incubated at room temperature for 15 min. […] The samples were incubated for 30 min at room temperature and added to a white 384-well plate, where TR-FRET was measured on a Molecular Devices SpectraMax M5 plate reader using an excitation wavelength of 345-nm and a 420-nm cutoff. The ratios of fluorescence intensity at 545 and 665 nm were calculated, and ratios in the absence of a compound and in the absence of RNA were used to calculate percent disruption. […]
[formula] • where y is ratio of fluorescence intensities at 545 nm and 665 nm (F545/F665), x is the concentration of a compound, B is F545/F665 value at max FRET effect (solution has RNA and protein but no compound added); A is F545/F665 value at min FRET effect (solution has antibodies but no RNA, protein, or compound); and the IC50 is the concentration of a compound where half of the protein is displaced by a compound.

## Cc1ccc2nc(Nc3ccc4nc(N(CCO)CCO)sc4c3)nc(NCCCO)c2c1 [Compound 80, 2,2′-((6-((4-((3-hydroxypropyl)amino)-6-methylquinazolin-2-yl)amino)benzo[d]thiazol-2-yl)azanediyl)bis(ethan-1-ol)]
[1]
  toxicity as stated in legend of FIG. 3C: non-toxic

## Cc1ccc2nc(Nc3ccc4nc(NCC(C)C)sc4c3)nc(NCCCO)c2c1 [Compound 73, 3-((2-((2-(isobutylamino)benzo[d]thiazol-6-yl)amino)-6-methylquinazolin-4-yl)amino)propan-1-ol]
[1]
  toxicity in DM2 patient-derived fibroblasts: significant toxicity

## Cc1ccc2nc(Nc3ccc4nc(NCCN(C)C)sc4c3)nc(NCCCO)c2c1 [Compound 79, 3-((2-((2-((2-(dimethylamino)ethyl)amino)benzo[d]thiazol-6-yl)amino)-6-methylquinazolin-4-yl)amino)propan-1-ol]
[2]; any concentration studied
  rescue of IR splicing: did not significantly rescue splicing
[1]
  toxicity as stated in legend of FIG. 3C: non-toxic
  toxicity in DM2 patient-derived fibroblasts: no toxicity

## Cc1ccc2nc(Nc3ccc4nc(NCC(C)(C)O)sc4c3)nc(NCCCO)c2c1 [Compound 78, 3-((2-((2-((2-hydroxy-2-methylpropyl)amino)benzo[d]thiazol-6-yl)amino)-6-methylquinazolin-4-yl)amino)propan-1-ol]
[2]; at 5 μM
  improvement of IR splicing: significantly improved IR splicing
[1]
  toxicity in DM2 patient-derived fibroblasts: no toxicity

## Cc1ccc2nc(Nc3ccc4nc(NC5CCN(Cc6ccccc6)CC5)sc4c3)nc(NCCCO)c2c1 [Compound 71, 3-((2-((2-((1-benzylpiperidin-4-yl)amino)benzo[d]thiazol-6-yl)amino)-6-methylquinazolin-4-yl)amino)propan-1-ol]
[1]
  toxicity in DM2 patient-derived fibroblasts: significant toxicity

## Cc1ccc2nc(Nc3ccc4nc(N5CCN(C)CC5)sc4c3)nc(NCCCO)c2c1 [Compound 82, 3-((6-methyl-2-((2-(4-methylpiperazin-1-yl)benzo[d]thiazol-6-yl)amino)quinazolin-4-yl)amino)propan-1-ol]
[1]
  toxicity in DM2 patient-derived fibroblasts: significant toxicity

## Cc1ccc2nc(Nc3ccc4nc(NCCN5CCOCC5)sc4c3)nc(NCCCO)c2c1 [Compound 74, 3-((6-methyl-2-((2-((2-morpholinoethyl)amino)benzo[d]thiazol-6-yl)amino)quinazolin-4-yl)amino)propan-1-ol]
[1]
  toxicity in DM2 patient-derived fibroblasts: significant toxicity

## Cc1ccc2nc(Nc3ccc4nc(N5CCOCC5)sc4c3)nc(NCCCO)c2c1 [Compound 72, 3-((6-methyl-2-((2-morpholinobenzo[d]thiazol-6-yl)amino)quinazolin-4-yl)amino)propan-1-ol]
[1]
  toxicity in DM2 patient-derived fibroblasts: significant toxicity

## OCCCNc1nc(Nc2ccc3c(c2)OCCO3)nc2ccccc12 [Compound 7, 3-((2-((2,3-dihydrobenzo[b][1,4]dioxin-6-yl)amino)quinazolin-4-yl)amino)propan-1-ol]
[3]; compound added to RNA with one 2×2 CU/UC internal loop
  shifts of RNA H6 and H8 proton resonances in 1D NMR, indicating binding: Significant shifts in resonances
[3]; positive phase signals in the presence of RNA
  binding to the RNA by waterLOGSY spectra: bound to the RNA
r(CCUG)12-MBNL1 complex
  IC50: 48.2 ± 0.07 µM
[2]; at 1 μM dose, p=0.026
  rescue of IR splicing: 12±5
[2]; at 5 μM
  rescue of IR exon 11 splicing: ~50%

## Cc1ccc2nc(Nc3ccc4c(c3)OCCO4)nc(NCCCO)c2c1 [Compound 58, 3-((2-((2,3-dihydrobenzo[b][1,4]dioxin-6-yl)amino)-6-methylquinazolin-4-yl)amino)propan-1-ol]
r(CCUG)12-MBNL1 complex
  IC50: 12.7 ± 0.2 µM
